In US7199147B2, “Rho kinase inhibitors” (Dainippon Sumitomo Pharma Co., Ltd., priority 2001, dated 2007):
Counter-ions that a name gives are not always drawn.

| Compound | melting point |
| --- | --- |
| c1cc2[nH]ncc2cc1OC1CCOCC1 [Example 365] | 151 to 153 °C |
| O=C(NC1CCCN(Cc2ccccc2)C1)c1ccc2[nH]ncc2c1 (centres unmarked) | 203 to 204 °C |
| CC(=O)N1CCC(Nc2ccc3[nH]ncc3c2)CC1 | 193 to 195 °C (dec.) |
| Cn1cc2cc(NC3CCN(Cc4ccccc4)CC3)ccc2n1 | 108 to 110 °C |
| CCC(=O)N[C@H]1CC[C@@H](Oc2ccc3[nH]ncc3c2SC)CC1 | 155 to 156 °C |
| O=C(CN1CCCCC1)Nc1ccc2[nH]ncc2c1 | 189 to 190 °C |
| CS(=O)(=O)N1CCC(Nc2ccc3[nH]ncc3c2)CC1 | 219 to 220 °C (dec.) |
| c1ccc(CN2CCN(Cc3ccc4[nH]ncc4c3)CC2)cc1 | 147 to 149 °C |
| Cl.Cl.c1cc(NC2CCNCC2)c2cn[nH]c2c1 | 270 to 271 °C |
| Cc1c(OC2=CC=CNC=C2)ccc2[nH]ncc12 | 157 to 159 °C |
| COc1ccc2[nH]ncc2c1C | 148 to 149 °C |
| c1ccc(CN2CCN(c3ccc4[nH]ncc4c3)CC2)cc1 | 196 to 198 °C (dec.) |
| CN(CCCC(=O)Nc1ccc2[nH]ncc2c1)Cc1ccccc1 | 115 to 117 °C |
| c1cc2cn[nH]c2cc1NC1CCNCC1 | 196 to 197 °C (dec.) |
| NCc1ccc(COc2ccc3[nH]ncc3c2)cc1 | 197 to 198 °C |
| CN(C)CCC(=O)Nc1ccc2[nH]ncc2c1 | 152 to 153 °C |
| Cl.Cl.c1ccc(CN2CCC(Nc3cccc4[nH]ncc34)CC2)cc1 | 257 to 260 °C (dec.) |
| c1cc2[nH]ncc2cc1OC1CCCN(C2CCCC2)CC1 (centres unmarked) | 138 to 140 °C |
| CC(C)COc1ccc2[nH]ncc2c1 | 151 to 153 °C |
| c1cc2[nH]ncc2cc1NCCC1CCNCC1 | 184 to 186 °C (dec.) |
| CN(C)C(=O)c1ccccc1Nc1ccc2[nH]ncc2c1 | 234 to 235 °C (dec.) |
| O=C1c2ccccc2C(=O)N1[C@H]1CCC[C@H](Oc2ccc3[nH]ncc3c2)C1 (relative stereo) | 197 to 198 °C |
| COCCC(=O)Nc1ccc2[nH]ncc2c1 | 173 to 174 °C |
| Cn1ncc2cc(NC3CCN(Cc4ccccc4)CC3)ccc21 | 116 to 117 °C |
| Cn1ncc2cc(NC3CCNCC3)ccc21 | 111 to 113 °C |

| Compound | melting point |
| --- | --- |
| CC(=O)N1CCC(Oc2ccc3[nH]ncc3c2C)CC1 | 161 to 163 °C |
| CN(c1ccc2[nH]ncc2c1)C1CCNCC1 | 175 to 177 °C |
| Cc1c(O[C@@H]2CCC[C@H](NCC3CCCC3)C2)ccc2[nH]ncc12 (relative stereo) | 140 to 142 °C |
| Cc1n[nH]c2ccc(NC3CCNCC3)cc12 | 175 to 177 °C |
| CC(C)N1CCC(Oc2ccc3[nH]ncc3c2)CC1 | 125 to 126 °C |
| N[C@H]1CC[C@@H](Oc2ccc3[nH]ncc3c2)CC1 | 144 to 146 °C |
| COc1c(OS(C)(=O)=O)ccc2[nH]ncc12 (as salt: methanesulfonate) | 130 to 131 °C |
| c1cc2[nH]ncc2cc1OC1CCCNCC1 (centres unmarked) | 159 to 160 °C |
| OC1CCC(Oc2ccc3[nH]ncc3c2)C1 (centres unmarked) | 147 to 148 °C |
| N[C@H]1CCC[C@H](Oc2ccc3[nH]ncc3c2)C1 (relative stereo) | 179 to 180 °C |
| O=S(=O)(Nc1ccc2[nH]ncc2c1)C1CCNCC1 | 120 to 123 °C |
| O=C(CCC(F)(F)F)Nc1ccc2[nH]ncc2c1 | 243 to 244 °C (dec.) |
| Cc1c(O[C@@H]2CCC[C@H](NC(=O)C3CCCC3)C2)ccc2[nH]ncc12 (relative stereo) | 242 to 244 °C (dec.) |
| c1cc2[nH]ncc2cc1NC1CC2CCC(C1)N2 (centres unmarked) | 236 to 238 °C |
| CNc1ccc2[nH]ncc2c1 | 144 to 146 °C |
| Cl.Cl.OCCN1C2CCC1CC(Nc1ccc3[nH]ncc3c1)C2 (centres unmarked) | 154 to 157 °C |
| CN(c1ccc2[nH]ncc2c1)C1CCN(Cc2ccccc2)CC1 | 152 to 154 °C |
| N[C@H]1CCC[C@H](Oc2ccc3[nH]ncc3c2Cl)C1 (relative stereo) | 142 to 144 °C |
| O=C(C=C1CCN(Cc2ccccc2)CC1)Nc1ccc2[nH]ncc2c1 | 169 to 172 °C |
| Cc1c(O[C@H]2CCC[C@H](NC3CCCC3)C2)ccc2[nH]ncc12 (relative stereo) | 110 to 112 °C |
| CCCN1C2CCC1CC(Nc1ccc3[nH]ncc3c1)C2.Cl.Cl (centres unmarked) | 198 to 203 °C |
| c1cc2[nH]ncc2cc1OC1CCOCC1 [Example 44] | 151 to 152 °C |
| Cc1c(OC2CCN(C(C)C)CC2)ccc2[nH]ncc12 | 134 to 136 °C |
| COc1ccc2ccccc2c1CNc1ccc2[nH]ncc2c1 | 183 to 185 °C |
| CCCCC(=O)N[C@H]1CCC[C@@H](Oc2ccc3[nH]ncc3c2C)C1 (relative stereo) | 190 to 193 °C |

| Compound | melting point |
| --- | --- |
| CN(CCCNc1ccc2[nH]ncc2c1)Cc1ccccc1 | 112 to 114 °C |
| N[C@H]1CCC[C@@H](Oc2cccc3[nH]ncc23)C1 (relative stereo) | 166 to 168 °C |
| CCS(=O)(=O)N1CCC(Nc2ccc3[nH]ncc3c2)CC1 | 182 to 183 °C |
| c1cc2[nH]ncc2cc1OC1CCCC1 | 141 to 142 °C |
| COc1ccc(CN[C@H]2CCC[C@@H](Oc3ccc4[nH]ncc4c3C)C2)cc1 (relative stereo) | 164 to 166 °C |
| Cc1n[nH]c2ccc(NC3CCN(Cc4ccccc4)CC3)cc12 | 160 to 162 °C |
| Cc1c(OC2CCCNC2)ccc2[nH]ncc12 (centres unmarked) | 183 to 185 °C |
| CC(C)N1CCC(Nc2ccc3[nH]ncc3c2)CC1 | 140 to 141 °C |
| CSc1c(O[C@H]2CC[C@@H](NC(=O)c3ccccc3)CC2)ccc2[nH]ncc12 | 146 to 148 °C |
| O=C(O)C(F)(F)F.c1cc2[nH]ncc2cc1NC1CCOCC1 | 242 to 245 °C (dec.) |
| O=C(NC1CCN(Cc2ccccc2)C1)c1ccc2[nH]ncc2c1 (centres unmarked) | 187 to 189 °C |
| Cc1c(O[C@H]2CC[C@H](N)CC2)ccc2[nH]ncc12 | 150 to 152 °C |
| CN(C)[C@H]1CCC[C@H](Oc2ccc3[nH]ncc3c2)C1 (relative stereo) | 134 to 135 °C |
| Cn1cc2cc(NC3CCNCC3)ccc2n1 | 144 to 147 °C |
| CCN[C@H]1CCC[C@H](Oc2ccc3[nH]ncc3c2)C1 (relative stereo) | 116 to 118 °C |
| O=C1c2ccccc2C(=O)N1[C@H]1CC[C@@H](Oc2ccc3[nH]ncc3c2)CC1 | 194 to 196 °C |
| Cl.Cl.c1cc2[nH]ncc2cc1NC1CN2CCC1CC2 (centres unmarked) | 184 to 188 °C |
| Cc1c(OC2CCCN(C3CCCC3)CC2)ccc2[nH]ncc12 (centres unmarked) | 126 to 131 °C |
| CN(CCC(=O)Nc1ccc2[nH]ncc2c1)Cc1ccccc1 | 140 to 141 °C |
| c1cc2[nH]ncc2cc1OC1CCCCC1 | 144 to 146 °C |
| Cc1c(O[C@H]2CC[C@@H](NC(C)C)CC2)ccc2[nH]ncc12 | 166 to 168 °C |
| CN1CCCC(NC(=O)c2ccc3[nH]ncc3c2)C1 (centres unmarked) | 228 to 229 °C |
| O=C(CCOCc1ccccc1)Nc1ccc2[nH]ncc2c1 | 167 to 169 °C |
| N#Cc1cccc(COc2ccc3[nH]ncc3c2)c1 | 158 to 161 °C |
| CSc1c(O)ccc2[nH]ncc12 | 126 to 128 °C |

| Compound | melting point |
| --- | --- |
| CC(C)CCC(=O)Nc1ccc2[nH]ncc2c1 | 215 to 216 °C (dec.) |
| c1cc(OC2CCNCC2)c2cn[nH]c2c1 | 162 to 165 °C |
| O=S(=O)(c1ccccc1)N1CCC(Nc2ccc3[nH]ncc3c2)CC1 | 132 to 136 °C |
| O=C(NC1CCOCC1)c1ccc2[nH]ncc2c1 | 285 to 286 °C |
| c1ccc(CN2CCC(CCNc3ccc4[nH]ncc4c3)CC2)cc1 | 117 to 118 °C |
| c1ccc(CN2CCC(Nc3ccc4oncc4c3)CC2)cc1 | 89 to 90 °C |
| O=C(c1ccc2[nH]ncc2c1)N1CCNCC1 | 190 to 191 °C |
| CC(C)CCCOc1ccc2[nH]ncc2c1 | 124 to 126 °C |
| Cc1c(O[C@H]2CCC[C@H](N)C2)ccc2[nH]ncc12 (relative stereo) | 156 to 160 °C |
| CS(=O)(=O)N1CCC(C(=O)Nc2ccc3[nH]ncc3c2)CC1 | 291 to 293 °C (dec.) |
| CCOC(=O)N1C2CCC1CC(Nc1ccc3[nH]ncc3c1)C2 (centres unmarked) | 158 to 159 °C |
| CSc1c(O[C@H]2CC[C@@H](N3C(=O)c4ccccc4C3=O)CC2)ccc2[nH]ncc12 | 211 to 212 °C |
| O=C(O)CCC(=O)Nc1ccc2[nH]ncc2c1 | 218 to 220 °C (dec.) |
| Cc1c(OC2CCN(C3CCCC3)CC2)ccc2[nH]ncc12 | 140 to 143 °C |
| O=C(CC1CCN(Cc2ccccc2)CC1)Nc1ccc2[nH]ncc2c1 | 195 to 197 °C |
| CCN[C@H]1CC[C@H](Oc2ccc3[nH]ncc3c2C)CC1 | 150 to 151 °C |
| CN(CC(=O)Nc1ccc2[nH]ncc2c1)Cc1ccccc1 | 159 to 160 °C |
| Cc1c(O[C@H]2CC[C@@H](NC3CCCC3)CC2)ccc2[nH]ncc12 | 153 to 155 °C |
| O=C(CCN1CCCCC1)Nc1ccc2[nH]ncc2c1 | 178 to 179 °C |
| c1cc2[nH]ncc2cc1NCC1CCOCC1 | 293 to 294 °C (dec.) |
| O=C(Nc1ccc2[nH]ncc2c1)C1CCOCC1 | 286 to 288 °C (dec.) |
| NCc1cccc(COc2ccc3[nH]ncc3c2)c1 | 179 to 183 °C |
| O=C(NC1CCCNC1)c1ccc2[nH]ncc2c1 (centres unmarked) | 265 to 266 °C |
